Reference: US11318113B2, “Compounds for the treatment of diseases linked to mitochondrial reactive oxygen species (ROS) production” (OP2 DRUGS, priority 2015, dated 2022)

System: diet-induced obese (DIO) mice
Assay: Chronic ip treatment of diet-induced obese mice on high-fat diet
Assay type: in vivo, mouse
Conditions: for AUC of blood glucose during insulin tolerance test (ITT): vehicle 12812.50±750.35
Description: The aim of the study was to determine whether the compound AOL, administered daily at the doses of 5 mg/kg and 10 mg/kg for up to five weeks by intraperitoneal (ip) daily administration in diet-induced obese (DIO) mice fed with a high-fat diet (HFD), modifies food intake, body weight, adiposity and glucose metabolism.
Mice were fed ad libitum with a HFD (60% of calories from fat, mostly lard) for twelve weeks before the pharmacological study begun. Animals received AOL or its vehicle by intraperitoneal (ip) administration and were maintained on HFD for the length of the study. Food intake and body weight were measured daily and recorded for up to three consecutive weeks.
Thirty 7-weeks-old male C57/B16J mice arrived to the laboratory on 25 Feb. 2016 and underwent a first in vivo body composition analysis (Echo MRI 900, EchoMRI Systems) after 1 week of adaptation to the experimental housing room. After this first MRI analysis, animals were fed a high-fat diet (HFD) ad libitum for a period of twelve weeks. Thereafter, they underwent a second MRI analysis and were distributed into 3 experimental groups of equivalent body weight and body composition.
Once the pharmacological treatment started (day 1), food intake (FI) and body weight (BW) were measured daily before the dark phase in animals housed in their home cage. Spillage of food was checked daily. The food consumed was calculated by subtracting the food left in the hoppers from the initial pre-weighted amount. FI and BW were measured for three consecutive weeks. Afterwards animals underwent a third MRI analysis in order to observe potential effects of the treatment onto the body composition (changes in fat and lean mass), followed by a glucose tolerance test (GTT) and an insulin tolerance test (ITT). Mice received daily ip administration of AOL or its vehicle for a total length of five weeks, until they were sacrificed.
A nuclear echo magnetic resonance imaging whole-body composition analyzer (Echo MRI 900; EchoMedical Systems) was used to repeatedly assess body fat and lean mass in conscious mice.
Animals were injected ip with 1.5 g/kg of D-Glucose (Sigma-Aldrich) for the GTT or with 0.5 U/kg of insulin (Humulin, Lilly, France) for the ITT. For the GTT and the ITT, animals were fasted overnight. The tests were conducted the following morning. Blood samples were taken from the tail vein at different time points (0, 15, 30, 60, 90 and 120 minutes after the ip administration of glucose or insulin) and glucose concentration was measured using glucose sticks (OneTouch Vita, Lifescan France, Issy les Moulineaux, France).
At sacrifice, blood samples were collected, blood glucose was rapidly assessed using glucose sticks and blood samples were then centrifuged at 3000 rpm for 15 minutes. The obtained plasma was stored at −80° C. for subsequent measurement of insulin, which was carried out by performing an ELISA (kit from Mercodia, Uppsala, Sweden), according to the manufacturer's instructions.

## COc1ccc(-c2cc(=S)ss2)cc1 [AOL, 5-(4-methoxyphenyl)-3H-1,2-dithiole-3-thione]
2-hour fasted mice, after five weeks of treatment
  blood glucose levels: tended to decrease
5 and 10 mg/kg ip daily
  body weight and % change of body weight: did not have a significant effect
AOL 5 mg/kg
  AUC of blood glucose during insulin tolerance test (ITT): 15006.56±1139.69
AOL 10 mg/kg
  action of insulin on circulating glucose levels during an ITT: significantly blunted
AOL 10 mg/kg, p=0.0107 vs vehicle
  AUC of blood glucose during insulin tolerance test (ITT): 18168.33±1562.90
After three weeks, 5 and 10 mg/kg ip daily
  lean mass: did not have any effect
After three weeks, 5 and 10 mg/kg ip daily, p=0.13
  fat mass: tended to reduce
Chronic daily administration, data not shown
  body weight and food intake: tended to decrease
